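Test compounds were applied to cells in 96-well plates for 48 hours at 5 doses. At the TGI there is no net growth.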
How the values were obtained:
Assay in all cases: NCI tumour cell line growth inhibition, 48 h
786-0 renal = tested on: 786-0 renal
A498 renal = tested on: A498 renal
A549 NSCLC = tested on: A549 NSCLC
ACHN renal = tested on: ACHN renal
BT-549 breast = tested on: BT-549 breast
CAKI-1 renal = tested on: CAKI-1 renal
CCRF-CEM leukemia = tested on: CCRF-CEM leukemia
DU-145 prostate = tested on: DU-145 prostate
EKVX NSCLC = tested on: EKVX NSCLC
HCC-2998 colon = tested on: HCC-2998 colon
HCT-116 colon = tested on: HCT-116 colon
HCT-15 colon = tested on: HCT-15 colon
HL-60(TB) leukemia = tested on: HL-60(TB) leukemia
HOP-62 NSCLC = tested on: HOP-62 NSCLC
HOP-92 NSCLC = tested on: HOP-92 NSCLC
HS 578T breast = tested on: HS 578T breast
HT29 colon = tested on: HT29 colon
K-562 leukemia = tested on: K-562 leukemia
KM12 colon = tested on: KM12 colon
LOX IMVI melanoma = tested on: LOX IMVI melanoma
M14 melanoma = tested on: M14 melanoma
MALME-3M melanoma = tested on: MALME-3M melanoma
MCF7 breast = tested on: MCF7 breast
MDA-MB-435 = tested on: MDA-MB-435
MDA-N = tested on: MDA-N
MOLT-4 leukemia = tested on: MOLT-4 leukemia
NCI-H23 lung = tested on: NCI-H23 lung
NCI-H522 lung = tested on: NCI-H522 lung
NCI/ADR-RES ovarian = tested on: NCI/ADR-RES ovarian
OVCAR-3 ovarian = tested on: OVCAR-3 ovarian
OVCAR-4 ovarian = tested on: OVCAR-4 ovarian
OVCAR-8 ovarian = tested on: OVCAR-8 ovarian
PC-3 prostate = tested on: PC-3 prostate
RPMI-8226 leukemia = tested on: RPMI-8226 leukemia
RXF 393 renal = tested on: RXF 393 renal
SF-268 CNS = tested on: SF-268 CNS
SF-295 CNS = tested on: SF-295 CNS
SF-539 CNS = tested on: SF-539 CNS
SK-MEL-28 melanoma = tested on: SK-MEL-28 melanoma
SK-MEL-5 melanoma = tested on: SK-MEL-5 melanoma
SN12C renal = tested on: SN12C renal
SNB-19 CNS = tested on: SNB-19 CNS
SNB-75 CNS = tested on: SNB-75 CNS
SR leukemia = tested on: SR leukemia
SW-620 colon = tested on: SW-620 colon
T-47D breast = tested on: T-47D breast
UACC-257 melanoma = tested on: UACC-257 melanoma
UACC-62 melanoma = tested on: UACC-62 melanoma
COLO 205 colon = tested on: COLO 205 colon
IGROV1 ovarian = tested on: IGROV1 ovarian
NCI-H226 lung = tested on: NCI-H226 lung
NCI-H460 lung = tested on: NCI-H460 lung
OVCAR-5 ovarian = tested on: OVCAR-5 ovarian
SK-MEL-2 melanoma = tested on: SK-MEL-2 melanoma
SK-OV-3 ovarian = tested on: SK-OV-3 ovarian
UO-31 renal = tested on: UO-31 renal
MDA-MB-231 breast = tested on: MDA-MB-231 breast
TK-10 renal = tested on: TK-10 renal
U251 CNS = tested on: U251 CNS

C(=N\c1cc2cc(Sc3ccccc3)ccc2[nH]1)/c1ccccc1
TGI (786-0 renal): > 12.5 µM | TGI (A498 renal): > 12.5 µM | TGI (A549 NSCLC): > 12.5 µM | TGI (ACHN renal): > 12.5 µM | TGI (BT-549 breast): > 12.5 µM | TGI (CAKI-1 renal): > 12.5 µM | TGI (CCRF-CEM leukemia): > 12.5 µM | TGI (DU-145 prostate): > 12.5 µM | TGI (EKVX NSCLC): > 12.5 µM | TGI (HCC-2998 colon): > 12.5 µM | TGI (HCT-116 colon): > 12.5 µM | TGI (HCT-15 colon): > 12.5 µM | TGI (HL-60(TB) leukemia): > 12.5 µM | TGI (HOP-62 NSCLC): > 12.5 µM | TGI (HOP-92 NSCLC): > 12.5 µM | TGI (HS 578T breast): > 12.5 µM | TGI (HT29 colon): > 12.5 µM | TGI (K-562 leukemia): > 12.5 µM | TGI (KM12 colon): > 12.5 µM | TGI (LOX IMVI melanoma): > 12.5 µM | TGI (M14 melanoma): > 12.5 µM | TGI (MALME-3M melanoma): > 12.5 µM | TGI (MCF7 breast): > 12.5 µM | TGI (MDA-MB-435): > 12.5 µM | TGI (MDA-N): > 12.5 µM | TGI (MOLT-4 leukemia): > 12.5 µM | TGI (NCI-H23 lung): > 12.5 µM | TGI (NCI-H522 lung): > 12.5 µM | TGI (NCI/ADR-RES ovarian): > 12.5 µM | TGI (OVCAR-3 ovarian): > 12.5 µM | TGI (OVCAR-4 ovarian): > 12.5 µM | TGI (OVCAR-8 ovarian): > 12.5 µM | TGI (PC-3 prostate): > 12.5 µM | TGI (RPMI-8226 leukemia): > 12.5 µM | TGI (RXF 393 renal): > 12.5 µM | TGI (SF-268 CNS): > 12.5 µM | TGI (SF-295 CNS): > 12.5 µM | TGI (SF-539 CNS): > 12.5 µM | TGI (SK-MEL-28 melanoma): > 12.5 µM | TGI (SK-MEL-5 melanoma): > 12.5 µM | TGI (SN12C renal): > 12.5 µM | TGI (SNB-19 CNS): > 12.5 µM | TGI (SNB-75 CNS): > 12.5 µM | TGI (SR leukemia): > 12.5 µM | TGI (SW-620 colon): > 12.5 µM | TGI (T-47D breast): > 12.5 µM | TGI (UACC-257 melanoma): > 12.5 µM | TGI (UACC-62 melanoma): > 12.5 µM

CCOc1cc(NC(C)=O)ccc1C(=O)NNS(=O)(=O)c1ccc(Cl)cc1Cl
TGI (786-0 renal): > 50 µM | TGI (A498 renal): > 50 µM | TGI (A549 NSCLC): > 50 µM | TGI (ACHN renal): > 50 µM | TGI (BT-549 breast): > 50 µM | TGI (CAKI-1 renal): > 50 µM | TGI (CCRF-CEM leukemia): > 50 µM | TGI (COLO 205 colon): > 50 µM | TGI (DU-145 prostate): > 50 µM | TGI (EKVX NSCLC): > 50 µM | TGI (HCC-2998 colon): > 50 µM | TGI (HCT-116 colon): > 50 µM | TGI (HCT-15 colon): > 50 µM | TGI (HL-60(TB) leukemia): > 50 µM | TGI (HOP-62 NSCLC): > 50 µM | TGI (HOP-92 NSCLC): > 50 µM | TGI (HS 578T breast): > 50 µM | TGI (HT29 colon): > 50 µM | TGI (IGROV1 ovarian): > 50 µM | TGI (K-562 leukemia): 21.4 µM | TGI (KM12 colon): > 50 µM | TGI (LOX IMVI melanoma): > 50 µM | TGI (M14 melanoma): > 50 µM | TGI (MALME-3M melanoma): > 50 µM | TGI (MCF7 breast): > 50 µM | TGI (MDA-MB-435): 45.1 µM | TGI (MDA-N): 23.1 µM | TGI (MOLT-4 leukemia): 22 µM | TGI (NCI-H226 lung): > 50 µM | TGI (NCI-H23 lung): > 50 µM | TGI (NCI-H460 lung): > 50 µM | TGI (NCI-H522 lung): > 50 µM | TGI (NCI/ADR-RES ovarian): > 50 µM | TGI (OVCAR-3 ovarian): > 50 µM | TGI (OVCAR-4 ovarian): > 50 µM | TGI (OVCAR-5 ovarian): > 50 µM | TGI (OVCAR-8 ovarian): > 50 µM | TGI (PC-3 prostate): > 50 µM | TGI (RPMI-8226 leukemia): 26.6 µM | TGI (RXF 393 renal): > 50 µM | TGI (SF-268 CNS): > 50 µM | TGI (SF-295 CNS): > 50 µM | TGI (SF-539 CNS): > 50 µM | TGI (SK-MEL-2 melanoma): > 50 µM | TGI (SK-MEL-28 melanoma): > 50 µM | TGI (SK-MEL-5 melanoma): > 50 µM | TGI (SK-OV-3 ovarian): > 50 µM | TGI (SN12C renal): > 50 µM | TGI (SNB-19 CNS): > 50 µM | TGI (SNB-75 CNS): > 50 µM | TGI (SR leukemia): > 50 µM | TGI (SW-620 colon): > 50 µM | TGI (T-47D breast): > 50 µM | TGI (UACC-257 melanoma): > 50 µM | TGI (UACC-62 melanoma): > 50 µM | TGI (UO-31 renal): > 50 µM

CC1(C)OC(C(C)(C)O)C(C(C)(C)O)O1 (centres undefined)
TGI (786-0 renal): > 100 µM | TGI (A549 NSCLC): > 100 µM | TGI (ACHN renal): > 100 µM | TGI (BT-549 breast): > 100 µM | TGI (CAKI-1 renal): > 100 µM | TGI (CCRF-CEM leukemia): > 100 µM | TGI (COLO 205 colon): > 100 µM | TGI (DU-145 prostate): > 100 µM | TGI (EKVX NSCLC): > 100 µM | TGI (HCC-2998 colon): > 100 µM | TGI (HCT-116 colon): > 100 µM | TGI (HCT-15 colon): > 100 µM | TGI (HL-60(TB) leukemia): > 100 µM | TGI (HOP-62 NSCLC): > 100 µM | TGI (HS 578T breast): > 100 µM | TGI (HT29 colon): > 100 µM | TGI (IGROV1 ovarian): > 100 µM | TGI (K-562 leukemia): > 100 µM | TGI (KM12 colon): > 100 µM | TGI (LOX IMVI melanoma): > 100 µM | TGI (M14 melanoma): > 100 µM | TGI (MALME-3M melanoma): > 100 µM | TGI (MCF7 breast): > 100 µM | TGI (MDA-MB-231 breast): > 100 µM | TGI (MDA-N): > 100 µM | TGI (MOLT-4 leukemia): > 100 µM | TGI (NCI-H226 lung): > 100 µM | TGI (NCI-H23 lung): > 100 µM | TGI (NCI-H460 lung): > 100 µM | TGI (NCI-H522 lung): > 100 µM | TGI (NCI/ADR-RES ovarian): > 100 µM | TGI (OVCAR-4 ovarian): > 100 µM | TGI (OVCAR-5 ovarian): > 100 µM | TGI (OVCAR-8 ovarian): > 100 µM | TGI (PC-3 prostate): > 100 µM | TGI (RPMI-8226 leukemia): > 100 µM | TGI (RXF 393 renal): > 100 µM | TGI (SF-268 CNS): > 100 µM | TGI (SF-295 CNS): > 100 µM | TGI (SF-539 CNS): > 100 µM | TGI (SK-MEL-2 melanoma): > 100 µM | TGI (SK-MEL-28 melanoma): > 100 µM | TGI (SK-MEL-5 melanoma): > 100 µM | TGI (SK-OV-3 ovarian): > 100 µM | TGI (SN12C renal): > 100 µM | TGI (SNB-19 CNS): > 100 µM | TGI (SNB-75 CNS): > 100 µM | TGI (SR leukemia): > 100 µM | TGI (SW-620 colon): > 100 µM | TGI (T-47D breast): > 100 µM | TGI (TK-10 renal): > 100 µM | TGI (U251 CNS): > 100 µM | TGI (UACC-257 melanoma): > 100 µM | TGI (UACC-62 melanoma): > 100 µM | TGI (UO-31 renal): > 100 µM
